Source: US6403639B1, “2,3-dihydrobenzofuran derivatives” (Chugai Seiyaku Kabushiki Kaisha, priority 1997, dated 2002)
Like-named read-outs stand apart in the source and are kept apart here.

Key:
[1] = system: porcine kidney-derived LLC-PK1 cells; test: Protective effect against cell injury of porcine kidney-derived LLC-PK1 cells (1), oxidized LDL-induced LDH leakage; format: cell-based; conditions: oxidized LDL 100 μg/ml, 6 hours; for % cytoprotection 1): test compounds added 16 hours before addition of oxidized LDL; for % cytoprotection 2): test compounds added immediately before addition of oxidized LDL
Protocol: For the purpose of evaluating in vitro cytoprotective effect of the compounds of the present invention, protective effect against cell injury of porcine kidney-derived LLC-PK1 cells (ATCC-CRL-13921) induced by oxidized low-density lipoprotein (oxidized LDL) was examined.
The oxidized LDL was prepared by placing 1 mg/ml of rabbit LDL in PBS (−) in the presence of 10 μM CuSO4 at 37° C. for 24 hours. Cell cultures were prepared by inoculating 1.25×10^4 cells/250 μl/well on a 48-well plate using M199 medium containing 3% FBS. Test compounds were dissolved or suspended in ethanol and added at a ratio of 1.25 μl/well 16 hours before or immediately before addition of the oxidized LDL to a concentration of 0.1, 1 or 10 μM in each well. The oxidized LDL was diluted twice with physiological saline and then added to cells at 62.5 μl/well to a concentration of 100 μg/ml and the cells were incubated for 6 hours after addition of the oxidized LDL. After the incubation, 162.5 μl of the culture medium was collected from each of the wells and measured for the lactate dehydrogenase (LDH) activity (Lactate Dehydrogenase (LD-L): SIGNA DIAGNOSTICS) which has leaked into the culture medium.
(§1) The cytoprotective effect was expressed as a % cytoprotection where the effect in wells containing the oxidized LDL but without any test compound is 0% and the effect in wells containing physiological saline in place of the oxidized LDL is 100%.

cultured mesangial cells = test: Protective effect against cell injury of cultured mesangial cells, oxidized LDL-induced LDH leakage; format: cell-based, rats
Protocol: For the purpose of evaluating in vitro cytoprotective effect of the compounds of the present invention, protective effect against cell injury of cultured mesangial cells induced by oxidized low-density lipoprotein (LDL) was examined. The cells used were subcultures after 4 to 6 passages of the primary cultures of mesangial cells prepared from kidney of 4-week-old SD-strain male rats (Nippon Charles River Corp.).
The oxidized LDL was prepared by placing 1 mg/ml of rabbit LDL in PBS (−) in the presence of 10 μM CuSO4 at 37° C. for 24 hours. Cell cultures were prepared by inoculating 2.5×10^4 cells/250 μl/well on a 48-well plate using RPMI1640 medium containing 20% FBS. Immediately before addition of test compounds, the medium was replaced with RPMI1640 free from FBS. Test compounds were dissolved or suspended in ethanol and added at 1.25 μl/well 16 hours before or immediately before addition of the oxidized LDL to a concentration of 1, 3 or 10 μM in each well. Unlike Test example 1, the oxidized LDL was not diluted with physiological saline and added to cells at 25 μl/well to a concentration of 91 μg/ml and the cells were incubated for 8 hours after addition of the oxidized LDL. After the incubation, 150 μl of the culture medium was collected from each of the wells and measured for the lactate dehydrogenase activity (Lactate Dehydrogenase (LD-L): SIGMA DIAGNOSTICS) which has leaked in the culture medium.
as §1

[2] = Rattus norvegicus, Mesangial cell; 1 μM; test compounds added 16 hours before addition of oxidized LDL; oxidized LDL 91 μg/ml, 8 hours; read-out: % cytoprotection 1)
[3] = Rattus norvegicus, Mesangial cell; 1 μM; test compounds added immediately before addition of oxidized LDL; oxidized LDL 91 μg/ml, 8 hours; read-out: % cytoprotection 2)
[4] = Rattus norvegicus, Mesangial cell; 3 μM; test compounds added 16 hours before addition of oxidized LDL; oxidized LDL 91 μg/ml, 8 hours; read-out: % cytoprotection 1)
[5] = Rattus norvegicus, Mesangial cell; 3 μM; test compounds added immediately before addition of oxidized LDL; oxidized LDL 91 μg/ml, 8 hours; read-out: % cytoprotection 2)

Compound	% cytoprotection 1) ([1]; 0.1 μM)	% cytoprotection 2) ([1]; 0.1 μM)	% cytoprotection 1) ([1]; 1 μM)	% cytoprotection 2) ([1]; 1 μM)	% cytoprotection 1) ([1]; 10 μM)	% cytoprotection 2) ([1]; 10 μM)	inhibition at 1 µM (cultured mesangial cells; [2])	inhibition at 1 µM (cultured mesangial cells; [3])	inhibition at 3 µM (cultured mesangial cells; [4])	inhibition at 3 µM (cultured mesangial cells; [5])
CC(C)(C)c1cc(O)c(C(C)(C)C)c2c1OCC2 [Example 1, 4,7-Di-t-butyl-5-hydroxy-2,3-dihydrobenzofuran]	92.7%	17.5%	104.1%	103.9%	100.5%	102.3%	24.2 ± 9.3%	40.3 ± 3.2%	78.2 ± 13.4%	69.7 ± 13.3%
CC1Cc2c(c(C(C)(C)C)cc(O)c2C(C)(C)C)O1 (stereo not drawn) [Example 2, 4,7-Di-t-butyl-5-hydroxy-2-methyl-2,3-dihydrobenzofuran]	24.4%	27.1%	101.2%	101.5%	101.0%	99.9%	35.6 ± 7.5%	40.6 ± 8.2%	60.5 ± 6.2%	53.1 ± 5.7%
CC1(C)Cc2cc(O)c(C(C)(C)C)cc2O1 [Example 5, 6-t-Butyl-5-hydroxy-2,2-dimethyl-2,3-dihydrobenzofuran]	77.6%	18.2%	103.4%	100.8%	100.6%	101.7%	34.2 ± 4.5%	11.3 ± 2.4%	42.3 ± 4.7%	28.9 ± 2%
